Where two headings read alike, the source gives them in different places.
Tests used:
Assay type in all cases: cell-based, human
RXF 393 = system: RXF 393
Experimental: (§1) (aR)-6, (aS)-6, (aS)-iso -6, and (aR)-iso -6 were submitted to the 60 Cell Screen panel and evaluated at 5 doses (100 μM, 10 μM, 1 μM, 0.1 μM, and 0.01 μM). […] The complete report from this submission is available at the publisher’s Web site as a separate Supporting Information file. For COMPARE analysis, TGI levels of response for (aR)-DM-MTC (6) and (aS)-iso-DM-MTC were compared to those of several established tubulin inhibitors previously tested in the NCI-60 screen.

EKVX = system: EKVX
Experimental: as §1

A549/ATCC = system: A549/ATCC
Experimental: as §1

CCRF-CEM = system: CCRF-CEM
Experimental: as §1

SK-MEL-2 = system: SK-MEL-2
Experimental: as §1

HCC-2998 = system: HCC-2998
Experimental: as §1

MDA-MB-435 = system: MDA-MB-435
Experimental: as §1

UACC-257 = system: UACC-257
Experimental: as §1

IGROV1 = system: IGROV1
Experimental: as §1

HS 578T = system: HS 578T
Experimental: as §1

NCI-H522 = system: NCI-H522
Experimental: as §1

COLO 205 = system: COLO 205
Experimental: as §1

SW-620 = system: SW-620
Experimental: as §1

M14 = system: M14
Experimental: as §1

SNB-75 = system: SNB-75
Experimental: as §1

SF-295 = system: SF-295
Experimental: as §1

NCI-H226 = system: NCI-H226
Experimental: as §1

HCT-15 = system: HCT-15
Experimental: as §1

U251 = system: U251
Experimental: as §1

HOP-62 = system: HOP-62
Experimental: as §1

UO-31 = system: UO-31
Experimental: as §1

OVCAR-4 = system: OVCAR-4
Experimental: as §1

RPMI-8226 = system: RPMI-8226
Experimental: as §1

MDA-MB-231/ATCC = system: MDA-MB-231/ATCC
Experimental: as §1

SF-539 = system: SF-539
Experimental: as §1

SK-OV-3 = system: SK-OV-3
Experimental: as §1

UACC-62 = system: UACC-62
Experimental: as §1

## COc1cc(C)c(-c2ccc(OC)c(=O)cc2C)c(OC)c1OC (single isomer, unassigned) [(aR)-6]
RXF 393
  Log10GI50: -5.71 Molar
  Log10LC50: > -4.00 Molar
  Log10TGI: > -4.00 Molar
RXF 393; Homo sapiens
  GI50: 1.95 µM
RXF 393; listed as (aR)-DM-MTC
  Log10GI50: -5.71 Molar
EKVX
  Log10GI50: -5.18 Molar
  Log10LC50: > -4.00 Molar
  Log10TGI: > -4.00 Molar
EKVX; Homo sapiens
  GI50: 6.61 µM
EKVX; listed as (aR)-DM-MTC
  Log10GI50: -5.18 Molar
A549/ATCC
  Log10GI50: -5.42 Molar
  Log10LC50: > -4.00 Molar
  Log10TGI: > -4.00 Molar
A549/ATCC; Homo sapiens
  GI50: 3.8 µM
A549/ATCC; listed as (aR)-DM-MTC
  Log10GI50: -5.42 Molar
CCRF-CEM
  Log10GI50: -5.71 Molar
  Log10LC50: > -4.00 Molar
  Log10TGI: > -4.00 Molar
CCRF-CEM; Homo sapiens
  GI50: 1.95 µM
CCRF-CEM; listed as (aR)-DM-MTC
  Log10GI50: -5.71 Molar
SK-MEL-2
  Log10GI50: -6.05 Molar
  Log10LC50: > -4.00 Molar
  Log10TGI: -5.18 Molar
SK-MEL-2; Homo sapiens
  GI50: 0.89 µM
SK-MEL-2; listed as (aR)-DM-MTC
  Log10GI50: -6.05 Molar
HCC-2998
  Log10GI50: -5.55 Molar
  Log10LC50: > -4.00 Molar
  Log10TGI: > -4.00 Molar
HCC-2998; Homo sapiens
  GI50: 2.82 µM
HCC-2998; listed as (aR)-DM-MTC
  Log10GI50: -5.55 Molar
MDA-MB-435
  Log10GI50: -6.57 Molar
  Log10LC50: > -4.00 Molar
  Log10TGI: -6.13 Molar
MDA-MB-435; Homo sapiens
  GI50: 0.27 µM
MDA-MB-435; listed as (aR)-DM-MTC
  Log10GI50: -6.57 Molar
UACC-257
  Log10GI50: -5.11 Molar
  Log10LC50: > -4.00 Molar
  Log10TGI: > -4.00 Molar
UACC-257; Homo sapiens
  GI50: 7.76 µM
UACC-257; listed as (aR)-DM-MTC
  Log10GI50: -5.11 Molar
IGROV1
  Log10GI50: -5.37 Molar
  Log10LC50: > -4.00 Molar
  Log10TGI: > -4.00 Molar
IGROV1; Homo sapiens, IGROV-1
  GI50: 4.27 µM
IGROV1; listed as (aR)-DM-MTC
  Log10GI50: -5.37 Molar
HS 578T
  Log10GI50: -5.81 Molar
  Log10LC50: > -4.00 Molar
HS 578T; Homo sapiens
  GI50: 1.55 µM
HS 578T; listed as (aR)-DM-MTC
  Log10GI50: -5.81 Molar
NCI-H522
  Log10GI50: -5.73 Molar
  Log10LC50: > -4.00 Molar
  Log10TGI: -5.27 Molar
NCI-H522; Homo sapiens
  GI50: 1.86 µM
NCI-H522; listed as (aR)-DM-MTC
  Log10GI50: -5.73 Molar
COLO 205
  Log10GI50: -5.76 Molar
  Log10LC50: -4.74 Molar
  Log10TGI: -5.35 Molar
COLO 205; Homo sapiens
  GI50: 1.74 µM
COLO 205; listed as (aR)-DM-MTC
  Log10GI50: -5.76 Molar
SW-620
  Log10GI50: -5.91 Molar
  Log10LC50: > -4.00 Molar
  Log10TGI: > -4.00 Molar
SW-620; Homo sapiens
  GI50: 1.23 µM
SW-620; listed as (aR)-DM-MTC
  Log10GI50: -5.91 Molar
M14
  Log10GI50: -6.07 Molar
  Log10LC50: > -4.00 Molar
  Log10TGI: > -4.00 Molar
M14; Homo sapiens
  GI50: 0.85 µM
M14; listed as (aR)-DM-MTC
  Log10GI50: -6.07 Molar
SNB-75
  Log10GI50: -6.04 Molar
  Log10LC50: > -4.00 Molar
SNB-75; Homo sapiens
  GI50: 0.91 µM
SNB-75; listed as (aR)-DM-MTC
  Log10GI50: -6.04 Molar
SF-295
  Log10GI50: -5.76 Molar
  Log10LC50: > -4.00 Molar
  Log10TGI: > -4.00 Molar
SF-295; Homo sapiens
  GI50: 1.74 µM
SF-295; listed as (aR)-DM-MTC
  Log10GI50: -5.76 Molar
NCI-H226
  Log10GI50: -5.41 Molar
  Log10LC50: > -4.00 Molar
  Log10TGI: > -4.00 Molar
NCI-H226; Homo sapiens
  GI50: 3.89 µM
NCI-H226; listed as (aR)-DM-MTC
  Log10GI50: -5.41 Molar
HCT-15
  Log10GI50: -6.17 Molar
  Log10LC50: > -4.00 Molar
  Log10TGI: > -4.00 Molar
HCT-15; Homo sapiens
  GI50: 0.68 µM
HCT-15; listed as (aR)-DM-MTC
  Log10GI50: -6.17 Molar
U251
  Log10GI50: -5.53 Molar
  Log10LC50: > -4.00 Molar
  Log10TGI: > -4.00 Molar
U251; Homo sapiens, U-251
  GI50: 2.95 µM
U251; listed as (aR)-DM-MTC
  Log10GI50: -5.53 Molar
HOP-62
  Log10GI50: -5.42 Molar
  Log10LC50: > -4.00 Molar
  Log10TGI: > -4.00 Molar
HOP-62; Homo sapiens
  GI50: 3.8 µM
HOP-62; listed as (aR)-DM-MTC
  Log10GI50: -5.42 Molar
UO-31
  Log10GI50: -5.16 Molar
  Log10LC50: > -4.00 Molar
  Log10TGI: > -4.00 Molar
UO-31; Homo sapiens
  GI50: 6.92 µM
UO-31; listed as (aR)-DM-MTC
  Log10GI50: -5.16 Molar
OVCAR-4
  Log10GI50: -4.35 Molar
  Log10LC50: > -4.00 Molar
  Log10TGI: > -4.00 Molar
OVCAR-4; Homo sapiens
  GI50: 44.7 µM
OVCAR-4; listed as (aR)-DM-MTC
  Log10GI50: -4.35 Molar
RPMI-8226
  Log10GI50: -5.39 Molar
  Log10LC50: > -4.00 Molar
  Log10TGI: > -4.00 Molar
RPMI-8226; Homo sapiens
  GI50: 4.07 µM
RPMI-8226; listed as (aR)-DM-MTC
  Log10GI50: -5.39 Molar
MDA-MB-231/ATCC
  Log10GI50: -5.59 Molar
  Log10LC50: > -4.00 Molar
  Log10TGI: > -4.00 Molar
MDA-MB-231/ATCC; Homo sapiens
  GI50: 2.57 µM
MDA-MB-231/ATCC; listed as (aR)-DM-MTC
  Log10GI50: -5.59 Molar
SF-539
  Log10GI50: -5.65 Molar
  Log10LC50: > -4.00 Molar
  Log10TGI: > -4.00 Molar
SF-539; Homo sapiens
  GI50: 2.24 µM
SF-539; listed as (aR)-DM-MTC
  Log10GI50: -5.65 Molar
SK-OV-3
  Log10GI50: -5.59 Molar
  Log10LC50: > -4.00 Molar
  Log10TGI: > -4.00 Molar
SK-OV-3; Homo sapiens
  GI50: 2.57 µM
SK-OV-3; listed as (aR)-DM-MTC
  Log10GI50: -5.59 Molar
UACC-62
  Log10GI50: -6.03 Molar
  Log10LC50: > -4.00 Molar
  Log10TGI: > -4.00 Molar
UACC-62; Homo sapiens
  GI50: 0.93 µM
UACC-62; listed as (aR)-DM-MTC
  Log10GI50: -6.03 Molar

Source: article PMC12150326 (The Journal of Organic Chemistry, 2025)
